Assay results reported in patent US20020035061A1, “COMPOSITIONS AND METHODS FOR TREATING INFECTIONS USING CATIONIC PEPTIDES ALONE OR IN COMBINATION WITH ANTIBIOTICS” (priority 1996, published 2002).
Converted amounts (≈) assume the structure as drawn. Read-outs that look alike come from different tables or passages of the source.

What was measured:
[1] = test system: microorganisms with acquired resistance; test: microbe, parasite or virus in culture; assay type: cell-based
[2] = test system: inherently resistant microorganisms; test: microbe, parasite or virus in culture; assay type: cell-based
[3] = Staphylococcus aureus, read-out: MIC alone (antibiotic agent), S. aureus

SMILES	MIC comb. (antibiotic agent) ([1]; S. aureus, with MBI 26)	MIC comb. (antibiotic agent) ([1]; S. haemolyticus, with MBI 26)	MIC [1, 3]	MIC comb. (antibiotic agent) ([1]; A. calcoaceticus, with MBI 26)	MIC comb. (antibiotic agent) ([1]; A. calcoaceticus, with MBI 29)	MIC ([1]; Acinetobacter calcoaceticus, read-out: MIC alone (antibiotic agent), A. calcoaceticus)	MIC comb. (antibiotic agent) ([1]; P. aeruginosa, with MBI 29)	MIC ([1]; Pseudomonas aeruginosa, read-out: MIC alone (antibiotic agent), P. aeruginosa)	MIC ([2]; Acinetobacter calcoaceticus, read-out: Erythromycin MIC + MBI 26, A. calcoaceticus AC001)	MIC ([2]; Klebsiella pneumoniae, read-out: Erythromycin MIC + MBI 26, K. pneumoniae KP001)	MIC ([2]; Klebsiella pneumoniae, read-out: Erythromycin MIC + MBI 26, K. pneumoniae KP002)	MIC ([2]; Klebsiella pneumoniae, read-out: Erythromycin MIC Alone, K. pneumoniae KP002)	MIC ([2]; Pseudomonas aeruginosa, read-out: Erythromycin MIC + MBI 26, P. aeruginosa PA041)	MIC ([2]; Pseudomonas aeruginosa, read-out: Erythromycin MIC Alone, P. aeruginosa PA041)	MIC ([1]; Staphylococcus epidermidis, read-out: MIC alone (antibiotic agent), S. epidermidis)	MIC ([1]; Staphylococcus haemolyticus, read-out: MIC alone (antibiotic agent), S. haemolyticus)
CC1(C)S[C@@H]2[C@H](NC(=O)[C@H](N)c3ccccc3)C(=O)N2[C@H]1C(=O)O [Ampicillin]	0.25 µg/mL (≈ 0.715 µM)	0.25 µg/mL (≈ 0.715 µM)	2 µg/mL (≈ 5.72 µM)													
CC(C)(O/N=C(\C(=O)N[C@@H]1C(=O)N2C(C(=O)[O-])=C(C[n+]3ccccc3)CS[C@H]12)c1csc(N)n1)C(=O)O [Ceftazidime]				2 µg/mL (≈ 3.66 µM)	2 µg/mL (≈ 3.66 µM)	32 µg/mL (≈ 58.5 µM)	16 µg/mL (≈ 29.3 µM)	64 µg/mL (≈ 117 µM)								
CC[C@H]1OC(=O)[C@H](C)[C@@H](O[C@H]2C[C@@](C)(OC)[C@@H](O)[C@H](C)O2)[C@H](C)[C@@H](O[C@@H]2O[C@H](C)C[C@H](N(C)C)[C@H]2O)[C@](C)(O)C[C@@H](C)C(=O)[C@H](C)[C@@H](O)[C@]1(C)O [Erythromycin]			8 µg/mL (≈ 10.9 µM)						1 µg/mL	0.25 µg/mL	0.5 µg/mL	256 µg/mL (≈ 349 µM)	4 µg/mL	128 µg/mL (≈ 174 µM)	8 µg/mL (≈ 10.9 µM)	8 µg/mL (≈ 10.9 µM)
